Test results published in the NIST ThermoML archive (doi:10.1016/j.jct.2004.10.011).
Numbers after ± are expanded uncertainties.

Assay: xn = mol fraction of the nth substance listed
Details: 298.15 K, Liquid, Vibrating tube method

CCC(=O)c1ccccc1 [ethyl phenyl ketone] + Cc1ccccc1
mass density [kg/m3]
Details	x2 = 0	x2 = 0.1048	x2 = 0.2025	x2 = 0.3006	x2 = 0.3991	x2 = 0.4998	x2 = 0.6004	x2 = 0.7036	x2 = 0.8028	x2 = 0.902
100 kPa	1005.3 ± 0.56	993.5 ± 0.51	982.2 ± 0.47	970.2 ± 0.43	957.5 ± 0.39	943.76 ± 0.37	929.02 ± 0.33	913.4 ± 0.32	897.3 ± 0.3	880.1 ± 0.29
2130 kPa	1006.4 ± 0.56	994.6 ± 0.51	983.3 ± 0.47	971.3 ± 0.43	958.6 ± 0.39	944.95 ± 0.36	930.27 ± 0.33	914.7 ± 0.3	898.6 ± 0.28	881.5 ± 0.27
4150 kPa	1007.5 ± 0.56	995.8 ± 0.51	984.5 ± 0.47	972.6 ± 0.43	959.9 ± 0.39	946.25 ± 0.36	931.61 ± 0.33	916 ± 0.3	900 ± 0.29	882.9 ± 0.28
6180 kPa	1008.7 ± 0.56	996.9 ± 0.51	985.7 ± 0.47	973.8 ± 0.43	961.2 ± 0.39	947.55 ± 0.36	932.93 ± 0.33	917.4 ± 0.3	901.4 ± 0.29	884.4 ± 0.28
8210 kPa	1009.8 ± 0.56	998.1 ± 0.51	986.9 ± 0.47	975 ± 0.43	962.4 ± 0.39	948.81 ± 0.36	934.23 ± 0.33	918.7 ± 0.3	902.8 ± 0.29	885.8 ± 0.28
10230 kPa	1010.9 ± 0.56	999.2 ± 0.51	988 ± 0.47	976.1 ± 0.43	963.6 ± 0.39	950.05 ± 0.36	935.53 ± 0.33	920 ± 0.3	904.2 ± 0.28	887.2 ± 0.28
11250 kPa	1011.5 ± 0.56	999.8 ± 0.51	988.6 ± 0.47	976.7 ± 0.43	964.2 ± 0.39	950.67 ± 0.36	936.16 ± 0.33	920.7 ± 0.31	904.8 ± 0.29	887.9 ± 0.28
12260 kPa	1012.1 ± 0.56	1000.3 ± 0.51	989.2 ± 0.47	977.3 ± 0.43	964.8 ± 0.39	951.26 ± 0.36	936.78 ± 0.33	921.3 ± 0.31	905.5 ± 0.29	888.6 ± 0.29
14290 kPa	1013.2 ± 0.56	1001.5 ± 0.51	990.3 ± 0.47	978.5 ± 0.43	966 ± 0.39	952.5 ± 0.36	938.05 ± 0.33	922.6 ± 0.31	906.8 ± 0.29	890 ± 0.28
16310 kPa	1014.3 ± 0.56	1002.6 ± 0.51	991.4 ± 0.47	979.6 ± 0.43	967.1 ± 0.39	953.69 ± 0.36	939.26 ± 0.33	923.8 ± 0.31	908.1 ± 0.29	891.3 ± 0.28
18340 kPa	1015.3 ± 0.56	1003.7 ± 0.51	992.5 ± 0.47	980.7 ± 0.43	968.3 ± 0.39	954.88 ± 0.36	940.49 ± 0.33	925.1 ± 0.31	909.4 ± 0.3	892.6 ± 0.29
20370 kPa	1016.4 ± 0.56	1004.8 ± 0.51	993.6 ± 0.47	981.8 ± 0.43	969.4 ± 0.39	956.04 ± 0.36	941.68 ± 0.33	926.3 ± 0.31	910.7 ± 0.3	893.9 ± 0.29
22390 kPa	1017.5 ± 0.56	1005.8 ± 0.51	994.7 ± 0.47	983 ± 0.43	970.5 ± 0.39	957.19 ± 0.36	942.87 ± 0.33	927.5 ± 0.31	911.9 ± 0.3	895.2 ± 0.29
24420 kPa	1018.5 ± 0.56	1006.9 ± 0.51	995.8 ± 0.47	984 ± 0.43	971.7 ± 0.39	958.35 ± 0.36	944.05 ± 0.33	928.7 ± 0.31	913.1 ± 0.3	896.5 ± 0.3
26450 kPa	1019.5 ± 0.56	1007.9 ± 0.51	996.8 ± 0.47	985.1 ± 0.43	972.7 ± 0.39	959.45 ± 0.36	945.21 ± 0.33	929.9 ± 0.31	914.3 ± 0.3	897.8 ± 0.3
28470 kPa	1020.5 ± 0.56	1009 ± 0.52	997.9 ± 0.47	986.2 ± 0.43	973.8 ± 0.39	960.58 ± 0.36	946.36 ± 0.33	931.1 ± 0.31	915.5 ± 0.3	899 ± 0.3
29490 kPa	1021 ± 0.57	1009.5 ± 0.51	998.4 ± 0.47	986.7 ± 0.43	974.3 ± 0.39	961.14 ± 0.36	946.92 ± 0.33	931.7 ± 0.31	916.1 ± 0.3	899.6 ± 0.3
30500 kPa	1021.6 ± 0.57	1010 ± 0.52	998.9 ± 0.47	987.2 ± 0.43	974.9 ± 0.4	961.68 ± 0.36	947.48 ± 0.34	932.2 ± 0.32	916.7 ± 0.31	900.2 ± 0.3
32530 kPa	1022.5 ± 0.57	1011 ± 0.52	999.9 ± 0.47	988.3 ± 0.43	976 ± 0.39	962.77 ± 0.36	948.6 ± 0.33	933.4 ± 0.32	917.9 ± 0.3	901.4 ± 0.3
34550 kPa	1023.5 ± 0.57	1012 ± 0.52	1000.9 ± 0.47	989.3 ± 0.43	977 ± 0.39	963.83 ± 0.36	949.68 ± 0.33	934.5 ± 0.31	919 ± 0.31	902.6 ± 0.31
36580 kPa	1024.5 ± 0.57	1013 ± 0.52	1001.9 ± 0.47	990.3 ± 0.43	978 ± 0.39	964.89 ± 0.36	950.78 ± 0.33	935.6 ± 0.32	920.2 ± 0.31	903.8 ± 0.31
38600 kPa	1025.5 ± 0.57	1013.9 ± 0.52	1002.9 ± 0.47	991.3 ± 0.43	979 ± 0.39	965.93 ± 0.36	951.82 ± 0.33	936.7 ± 0.31	921.2 ± 0.31	904.9 ± 0.3
39620 kPa	1025.9 ± 0.57	1014.4 ± 0.51	1003.4 ± 0.47	991.8 ± 0.42	979.6 ± 0.39	966.46 ± 0.35	952.38 ± 0.32	937.2 ± 0.3	921.8 ± 0.29	905.2 ± 0.3
